Measurements reported in patent US20020184656A1, “In vivo assay system for screening and validation of drugs and other substances” (priority 2001, published 2002).

Key:
[1] = tested on: transgenic flies expressing human APC (hAPC/CBD) in developing eyes (using ey-GAL4); test: Drug screening on human APC-induced eye phenotypes in transgenic flies (drug in fly food); assay type: in vivo, Drosophila; details: for Total number of flies with eye phenotypes (in parenthesis: total number of flies of right genotype) / Number of flies with eye phenotypic ranks 1-5 / Number of flies with eye phenotypic ranks 6-10 / Number of flies with eye phenotypic ranks 11-15 / Number of flies with eye phenotypic ranks 16-20: Ey-GAL4, hAPC/CBD
Method: Table 1 Distribution of eye phenotypes induced by hAPC/CBD in different genetic backgrounds and in the presence of various compounds and other anti-cancer drugs. Numbers are from a representative experiment. Number in parenthesis in the last column indicates total number of the flies of right genotype.
(§1) In yet another embodiment of the present invention, LD50 is determined for each of the chemicals tested. At concentrations LD50 and below, none of the drugs induce any morphological phenotypes in wildtype flies. Thereafter, the effect of these drugs on transgenic flies expressing human APC in developing eyes (using ey-GAL4) is examined.
Eye phenotypes induced by human APC are arranged in the order of severity from 1 to 20. Human APC in wildtype background induced phenotypes of ranks 1-9. […] WT—wild type eye.
(§2) For drug screening, drugs (at different concentrations) were added to fly food at <50° C. and left over-night for drying. Care was taken to ensure homogenous mixing of the drug in the fly food. Blind-tests were carried out, wherein the vials with or without drugs were coded (with the help of other members of the lab). The crosses were always set-up in triplicates. The method of administering drugs described above is only an example and should not be limited to it as there can be other ways of administering drugs.

[2] = tested on: Drosophila; test: LD50 determination of the drugs in flies; assay type: in vivo; details: drug in fly food
Method: as §1, §2

[3] = 500 micrograms/ml fly food, 59 flies of right genotype
[4] = 50 micrograms/ml fly food, 47 flies of right genotype
[5] = 200 micrograms/ml fly food, 61 flies of right genotype
[6] = 200 microgram/ml fly food, 121 flies of right genotype

## CN1C(C(=O)Nc2ccccn2)=C(O)c2ccccc2S1(=O)=O [Pyroxicam]
[1]; 500 micrograms/ml fly food
  Total number of flies with eye phenotypes (in parenthesis: total number of flies of right genotype): 21(59)
[1]; [3]
  Number of flies with eye phenotypic ranks 1-5: 11
  Number of flies with eye phenotypic ranks 6-10: 7
  Number of flies with eye phenotypic ranks 11-15: 1
  Number of flies with eye phenotypic ranks 16-20: 2

## O=c1[nH]cc(F)c(=O)[nH]1 [5-fluorouracil]
[1]; 50 micrograms/ml fly food
  Total number of flies with eye phenotypes (in parenthesis: total number of flies of right genotype): 14(47)
[1]; [4]
  Number of flies with eye phenotypic ranks 6-10: 4
  Number of flies with eye phenotypic ranks 11-15: 1
[1]; 50 micrograms/ml fly food, 47 flies of right genotype, severity ranks 1 to 20
  Number of flies with eye phenotypic ranks 1-5: 9

## CC(=O)Oc1ccccc1C(=O)O [aspirin]
[1]; 200 micrograms/ml fly food
  Total number of flies with eye phenotypes (in parenthesis: total number of flies of right genotype): 19(61)
[1]; [5]
  Number of flies with eye phenotypic ranks 1-5: 13
  Number of flies with eye phenotypic ranks 6-10: 4
  Number of flies with eye phenotypic ranks 11-15: 2

## COc1ccc2c(c1)c(CC(=O)O)c(C)n2C(=O)c1ccc(Cl)cc1 [Indomethacin]
[1]; 200 microgram/ml fly food
  Total number of flies with eye phenotypes (in parenthesis: total number of flies of right genotype): 47(121)
[1]; [6]
  Number of flies with eye phenotypic ranks 1-5: 12
  Number of flies with eye phenotypic ranks 6-10: 8
  Number of flies with eye phenotypic ranks 11-15: 16
  Number of flies with eye phenotypic ranks 16-20: 11
[1]; ey-GAL4, extent similar to the enhancement shown by Df(3R)by^62
  Effect on human APC-induced eye phenotypes: enhances human APC-induced eye phenotypes
[1]; ey-GAL4, human APC
  Concentration dependence of the effect on human APC-induced eye phenotypes: concentration dependent
  Concentration of maximum effect on human APC-induced eye phenotypes: 200 μg/ml of fly food
[1]; human APC in wildtype background without drug: ranks 1-9, often resulting eyeless flies
  Ranks of eye phenotypes observed (severity 1 to 20): 1-20
[2]
  LD50: 250 μg/ml of fly food
